Our source for the GI50 and TGI values is PubChem BioAssay (NCI).

Some test systems named below: ACHN renal; MOLT-4 leukemia; NCI-H226 lung; SN12C renal; SK-OV-3 ovarian; HOP-62 NSCLC; UO-31 renal; PC-3 prostate.
Common to all, as to test: NCI-60 cell line screen, 48 h

Molecules are shown by their SMILES. Where “and” joins values, the source holds several entries; their conditions need not be identical. Equal entries are not always repeated.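 Grown in 96-well plates, cells were treated for 48 hours with each compound at five concentrations. Insufficient inhibition: endpoint recorded as highest concentration tested. GI50 = concentration required for 50% inhibition of growth. The concentration for full growth arrest is given as TGI.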 Bounds are passed on as bounds.

With `COC1CCN(C(=O)c2cc(Cc3n[nH]c(=O)c4ccccc34)ccc2F)CC1`, the GI50 was over 100 µM in the experiment with ACHN renal; 39.3 µM with MOLT-4 leukemia; 89.2 µM in the experiment on NCI-H226 lung; 67.5 µM in the experiment with SN12C renal; over 100 µM in the experiment with SK-OV-3 ovarian; 33.4 µM in the experiment on HOP-62 NSCLC. For the same compound, the values for the GI50 in the experiment with UO-31 renal and in the experiment on PC-3 prostate were 84.5 µM and over 87.6 µM, respectively. Besides, the TGI with ACHN renal, in the experiment on MOLT-4 leukemia, with NCI-H226 lung, in the experiment with SN12C renal, in the experiment on SK-OV-3 ovarian and with HOP-62 NSCLC was over 100 µM throughout. For the same compound, the TGI with UO-31 renal and with PC-3 prostate was over 100 µM throughout.
In the case of `CS(=O)(=O)Nc1ccc(-c2cc(-c3ccccc3)cc(C(N)=O)c2N)cc1`, the GI50 in the experiment with ACHN renal was over 25 µM; in the experiment on MOLT-4 leukemia, 19.5 µM; in the experiment with NCI-H226 lung, over 25 µM; with SN12C renal, over 25 µM; with SK-OV-3 ovarian, over 25 µM; in the experiment on HOP-62 NSCLC, over 25 µM. Also, the GI50 in the experiment on UO-31 renal is 14.7 µM; in the experiment on PC-3 prostate, 14.2 µM. The TGI in the experiment on ACHN renal, in the experiment with MOLT-4 leukemia, in the experiment on NCI-H226 lung, in the experiment with SN12C renal, with SK-OV-3 ovarian and in the experiment with HOP-62 NSCLC was over 25 µM in each case. In addition, the TGI in the experiment with UO-31 renal and with PC-3 prostate was over 25 µM throughout.
Turning to `Cc1ccccc1-n1ncc(C(=O)c2ccccc2)c1N`, the GI50 in the experiment on ACHN renal, in the experiment on MOLT-4 leukemia, in the experiment on NCI-H226 lung, with SN12C renal, in the experiment with SK-OV-3 ovarian and with HOP-62 NSCLC was over 25 µM in each case. Moreover, the GI50 in the experiment on UO-31 renal and in the experiment with PC-3 prostate was over 25 µM throughout. The TGI with ACHN renal, with MOLT-4 leukemia, with NCI-H226 lung, with SN12C renal, in the experiment with SK-OV-3 ovarian and with HOP-62 NSCLC was over 25 µM in each case. For the same compound, the TGI with UO-31 renal and in the experiment with PC-3 prostate was over 25 µM each time.
For `CC(C)(C)C(=O)OCOP(=O)(OCOC(=O)C(C)(C)C)C1CC(O)N(O)C1=O` (stereo not drawn), the GI50 in the experiment on ACHN renal was 6.04 µM; in the experiment with MOLT-4 leukemia, 3.91 µM; with NCI-H226 lung, 33.5 µM; with SN12C renal it was 2.87 µM; with SK-OV-3 ovarian it was 25.8 µM; in the experiment on HOP-62 NSCLC, 5.28 µM. The values for the GI50 in the experiment on UO-31 renal and in the experiment with PC-3 prostate were 2.92 µM and 8.81 µM, respectively. Further, the TGI with ACHN renal is over 100 µM; with MOLT-4 leukemia, over 100 µM; in the experiment with NCI-H226 lung it was over 100 µM; with SN12C renal, 9.56 µM; in the experiment with SK-OV-3 ovarian it was over 100 µM; in the experiment on HOP-62 NSCLC it was 26.8 µM. For the same compound, the TGI in the experiment with UO-31 renal was 37.6 µM; in the experiment on PC-3 prostate it was over 100 µM.
On to `COc1ccc2c(c1)[n+](=O)c(C(=O)c1ccco1)c(C(F)(F)F)n2[O-]`, for which the GI50 in the experiment with ACHN renal was 0.514 µM; with MOLT-4 leukemia it was over 100 µM; in the experiment on NCI-H226 lung, 3.04 µM; in the experiment on SN12C renal, 3.01 µM; with SK-OV-3 ovarian, 3.15 µM; in the experiment on HOP-62 NSCLC it was 2.86 µM. In addition, the GI50 in the experiment on UO-31 renal is 0.387 µM; in the experiment with PC-3 prostate it was 4.64 µM. For the same compound, the TGI was 2.53 µM with ACHN renal; over 100 µM in the experiment with MOLT-4 leukemia; 17.6 µM in the experiment on NCI-H226 lung; 11.8 µM with SN12C renal; 25.9 µM in the experiment on SK-OV-3 ovarian; 21.6 µM in the experiment on HOP-62 NSCLC. In addition, the TGI is 2.51 µM with UO-31 renal and over 100 µM in the experiment on PC-3 prostate.
For `Clc1ccc2c(c1)N(CCCN1CCCC1)c1ccccc1S2`, the GI50 is 4.86 µM in the experiment with ACHN renal; 4.09 µM with MOLT-4 leukemia; 19.4 µM in the experiment with NCI-H226 lung; 11.7 µM in the experiment with SN12C renal; 6.22 µM in the experiment on SK-OV-3 ovarian; 12.6 µM in the experiment on HOP-62 NSCLC. Moreover, the GI50 in the experiment with UO-31 renal is 6.61 µM; with PC-3 prostate, 4.38 µM. Besides, the TGI with ACHN renal came to 17.9 µM; in the experiment with MOLT-4 leukemia it was 15.9 µM; in the experiment with NCI-H226 lung, 48.3 µM; in the experiment with SN12C renal, 27.3 µM; in the experiment on SK-OV-3 ovarian, 19 µM; in the experiment on HOP-62 NSCLC it was 26.6 µM. The TGI in the experiment on UO-31 renal was found to be 20.7 µM; in the experiment with PC-3 prostate, 16.1 µM.
Regarding `CC1(C)CCC2=C(O1)c1ccccc1C(=O)C2=O`, the GI50 in the experiment with ACHN renal is 1.62 µM and 1.02 µM; in the experiment with MOLT-4 leukemia it was 2.67 µM; in the experiment with NCI-H226 lung, 1.84 µM; in the experiment with SN12C renal, 0.855 µM; with HOP-62 NSCLC it was 1.82 µM; in the experiment with UO-31 renal, 1.54 µM and 1.05 µM. Moreover, in the experiment with PC-3 prostate, the GI50 was 1.24 µM. Besides, the TGI in the experiment with ACHN renal was 2.97 µM and 2.18 µM; in the experiment with MOLT-4 leukemia, 7.92 µM; in the experiment on NCI-H226 lung, 3.77 µM and 2.89 µM; with SN12C renal it was 2.2 µM and 1.04 µM; in the experiment on SK-OV-3 ovarian it was 3.94 µM; with HOP-62 NSCLC, 4.14 µM and 1.48 µM. Further, the TGI with UO-31 renal was 2.89 µM and 2.23 µM; in the experiment with PC-3 prostate, 3.01 µM and 6.31 µM.
In the case of `COc1cc(-c2nc3ccccc3s2)ccc1NC(=O)COc1ccc(Cl)cc1`, the GI50 is 4.92 µM with ACHN renal; over 100 µM in the experiment on MOLT-4 leukemia; 4.31 µM in the experiment with NCI-H226 lung; 5.29 µM in the experiment on SN12C renal; 36.5 µM in the experiment with SK-OV-3 ovarian; 4.15 µM in the experiment on HOP-62 NSCLC. Besides, the GI50 in the experiment with UO-31 renal is 1.49 µM; with PC-3 prostate, 3.51 µM. Moreover, the TGI in the experiment with ACHN renal is over 100 µM; in the experiment on MOLT-4 leukemia, over 100 µM; in the experiment on NCI-H226 lung, 59.2 µM; with SN12C renal, over 100 µM; in the experiment with SK-OV-3 ovarian, over 100 µM; in the experiment on HOP-62 NSCLC it was 34.3 µM. The TGI with UO-31 renal and in the experiment on PC-3 prostate was over 100 µM each time.
As to `O=C1C(=O)c2c(nc3ccc(Br)cn23)-c2ccccc21`, the GI50 with ACHN renal is 0.452 µM; with MOLT-4 leukemia, 0.447 µM; with NCI-H226 lung, 1.61 µM; with SN12C renal it was 0.329 µM; with SK-OV-3 ovarian, 1.71 µM; in the experiment on HOP-62 NSCLC it was 1.59 µM. In addition, the figures for the GI50 in the experiment with UO-31 renal and with PC-3 prostate were 0.48 µM and 0.688 µM, respectively. Also, the TGI in the experiment on ACHN renal turned out to be 1.55 µM; in the experiment with MOLT-4 leukemia, 2.22 µM; in the experiment with NCI-H226 lung, 3.41 µM; with SN12C renal, 0.806 µM; with SK-OV-3 ovarian, 3.09 µM; in the experiment on HOP-62 NSCLC, 3.04 µM. In addition, the TGI in the experiment on UO-31 renal is 1.24 µM; in the experiment with PC-3 prostate it was 2.47 µM.
